# Earlier results, collected in patent US20250032643A1, “SYNTHETIC RECEPTORS” (UCL BUSINESS LTD, priority 2021, published 2025).
# Target: T1, α1B (Homo sapiens, UniProt P35368)
# T1 sequence (P35368 1-520): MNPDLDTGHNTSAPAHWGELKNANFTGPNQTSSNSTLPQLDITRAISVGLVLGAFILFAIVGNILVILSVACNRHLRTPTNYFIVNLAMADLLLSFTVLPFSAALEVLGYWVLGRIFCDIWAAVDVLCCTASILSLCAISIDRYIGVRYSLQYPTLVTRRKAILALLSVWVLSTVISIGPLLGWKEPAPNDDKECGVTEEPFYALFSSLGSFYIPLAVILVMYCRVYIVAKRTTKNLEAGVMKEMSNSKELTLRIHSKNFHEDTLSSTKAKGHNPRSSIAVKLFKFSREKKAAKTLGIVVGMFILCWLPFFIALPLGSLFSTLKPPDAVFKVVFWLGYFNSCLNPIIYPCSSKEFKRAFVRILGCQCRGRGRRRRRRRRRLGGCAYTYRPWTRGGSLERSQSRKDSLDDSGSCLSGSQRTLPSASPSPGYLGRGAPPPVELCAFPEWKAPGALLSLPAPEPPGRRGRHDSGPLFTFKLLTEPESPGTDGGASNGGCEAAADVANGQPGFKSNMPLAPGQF
# Conditions: read-out: binding affinity; native α1B receptor
compound,measurement,value
"CN(C)CCOC(c1ccccc1)c1ccccc1 [DPH, diphenhydramine]",Ki,> 1000 nM
